For series [1], the system named is Salmonella typhimurium histidine auxotroph mutants TA97, TA98, TA100 and TA102. As to the kind of experiment: Bacterial reverse mutation test (Ames test). As to conditions: 5-5000 μg/plate, −S9 and +S9. Format: cell-based. The method, then:
Bacterial reverse mutation test on compound I-20 was performed on Salmonella typhimurium histidine auxotroph mutants TA97, TA98, TA100 and TA102 (purchased from MolTox company) using conventional procedures of Ames test.
Observation period: colony counting was done 48 hours after cultivation at 37° C.
Drug solutions with different concentrations were prepared with double distilled water, and the doses were 5, 50, 500, 1000, 5000 μg/plate.
Direct effect of the test drug in the absence of metabolic activity was determined by standard plate incorporation assay. The composition of the test top layer was: 2.0 ml top layer, 0.1 ml drug solution, 0.1 ml bacteria solution and 0.5 ml phosphate buffer.
Pre-incubation was used in the determination of the drug's mutagenic effect in the presence of metabolic activity. The composition of the test top layer is: 2.0 ml top layer, 0.1 ml drug solution, 0.1 ml bacteria solution and 0.5 ml S9 mix.
The resulting drug solution, bacterial solution and S9 mix were first incubated at 35° C. for 30 min while shaking, and then tested according to standard plate incorporation assay. Each dose was tested in three plates, each mutant was tested in the absence or presence of metabolic activity (−S9 or +S9) and repeated twice, the number of revertant colonies was calculated as x±SD.

Series [2] addresses T1, 5-HT reuptake by brain synapses (Rattus norvegicus, UniProt P31652).
T1 construct: forehead cortex was obtained for [^3H]5-HT, [^3H]NA reuptake test; from tissue; host or cells: rat (SD) forebrain cortex synaptosomes
The experiment in a line: [3H]5-HT reuptake test in rat brain synapses. Format: biochemical. The method, then: The method was as follows:
Male SD rats were killed by cervical dislocation, heads were immediately cut and brains were obtained and put on ice, related brain tissues were dissected (forehead cortex was obtained for [^3H]5-HT, [^3H]NA reuptake test, corpus striatum was obtained for [^3H]DA reuptake).
After the sample was weighed, 10 folds (V/W) ice cold 0.32 mol/L sucrose solution was added.
According to [a. […] 5-HT was added and after incubation in water bath at 37° C. for 10 min, the reaction mixture was immediately taken out of the water bath and 2 ml ice cold 150 mmol/L Tris-HCl was added to terminate the reaction. The sample was collected on a round glass fiber filter by vacuum filtration and washed three times with 3 ml ice cold Tris-HCl buffer. The filter membrane was removed, dried in a far-infrared oven for 15 min, then transferred into a EP tube, in which 1.5 ml scintillation fluid was added, left overnight and detected by a scintillation counter. The test sample was not added into solvent controlled overall binding tube or non-specific binding tube. 50 μl solvent was added into the overall binding tube, and in [^3H] 5-HT reuptake test, 600 μmol/L cocaine was added into the non-specific binding tube.

A further series deals with mice. As to the kind of experiment: Sedative effects in mice (spontaneous activities). Format: in vivo. As to conditions: single dose 20 mg/kg. Also on record: unit not given here. Here is the method: Spontaneous activities of the mice were recorded by alternating current tube, Sedative effects were tested after single dose (20 mg/kg).
Another series deals with Kunming mice. The experiment in a line: Hot-plate test in mice. Format: in vivo. As to conditions: 1 h post dose. Here is the method:
Kunming mice, SPF KM mice were purchased from […] SLAC LABORATORY ANIMAL CO. LTD and kept in normal environment.
The compounds were dissolved in water for injection at a concentration of 4 mg/ml, 2 mg/ml and 1 mg/ml and were given subcutaneously to animals.
Three different doses (10, 20, and 40 mg/kg) were administered to the test groups.
Morphine was used as a positive control and hot plate test was used.
30-40 mice (half male and half female) weighed from 18 to 23 gram were used. First, each mouse was placed on a hot plat at 55° C. to determine basic pain threshold for 2-3 times. Those animals with basic pain threshold of 5-30 s were qualified, unqualified mice were not used. 30 qualified mice were divided into five groups, including negative control group, positive control group, low-dose group, medium-dose group and high-dose group:
Mice in test groups received test sample solution (10 mg/kg, 20 mg/kg, 40 mg/kg) via subcutaneous injection in the neck. Positive control group received subcutaneous injection of morphine (2 mg/kg). One hour later, pain threshold values were determined for mice in each group as post-drug pain threshold. Percentage increase in pain threshold was calculated according to the following equation: […]

A further series concerns the target T2, 5-HT2A receptor (Homo sapiens, UniProt P28223).
T2 construct: expressed in transfected cells; host or cells: HEK293
As to the kind of experiment: In-vitro competitive binding to 5-HT2A receptor, [3H]-Ketanserin, transformed HEK293 cells. Here is the method: All test samples were dissolved in DMSO at a concentration of 0.01 mol/L, and then diluted with deionized water to 100 umol/L.
HEK293 cells were transformed with plasmid carriers containing the gene coding for 5-HT2A receptor protein by using calcium phosphate transformation. Stable cell strains which could stably express 5-HT2A receptor protein were obtained from the transformed cells by cultivating in a culture media containing G418, selecting monoclones of the cell and performing radioactive ligand binding assay.
Beckman LS 6500 Scintillation Counter.
HEK-293 cells were infected with recombined viruses containing various genes described above. […] Cells were centrifuged at 1000 rpm for 5 min Culture media was discarded, and cell bodies were collected and stored at −20° C. in a freezer. The cell bodies were resuspended with Tris-HCl reaction buffer during assay.
After incubation at 37° C. for 15 min, the reaction mixture was immediately transferred into ice bath to terminate the reaction; the reaction mixture was quickly filtered through GF/C glass cellulose filter on a Millipore cell sample collector, and was then washed with eluting solution (50 mM Tris-HCl, PH 7.7, 3 ml×3) and dried in a microwave for 8-9 min. The filter was transferred into a 0.5 ml centrifuge tube, and 500 μl lipid soluble scintillation fluid was added. The centrifuge tube was allowed to stand in darkness for more than 30 min. Radioactivity was determined by counting Inhibition percentage of each compound on isotope ligand binding was calculated according to the following equation:
inhibition percentage(I %)=cpm of overall binding tube−cpm of compound/cpm of overall binding tube−cpm of nonspecific binding tube×100%.
Each compound was tested in two duplicate test tubes and two separate tests were performed.

The mark [3] stands for this setting: affinity to 5-HT2A receptor, concentration gradient test.

Marks after values point to notes of the source that are not given here.

T2 sequence (P28223 whole entry): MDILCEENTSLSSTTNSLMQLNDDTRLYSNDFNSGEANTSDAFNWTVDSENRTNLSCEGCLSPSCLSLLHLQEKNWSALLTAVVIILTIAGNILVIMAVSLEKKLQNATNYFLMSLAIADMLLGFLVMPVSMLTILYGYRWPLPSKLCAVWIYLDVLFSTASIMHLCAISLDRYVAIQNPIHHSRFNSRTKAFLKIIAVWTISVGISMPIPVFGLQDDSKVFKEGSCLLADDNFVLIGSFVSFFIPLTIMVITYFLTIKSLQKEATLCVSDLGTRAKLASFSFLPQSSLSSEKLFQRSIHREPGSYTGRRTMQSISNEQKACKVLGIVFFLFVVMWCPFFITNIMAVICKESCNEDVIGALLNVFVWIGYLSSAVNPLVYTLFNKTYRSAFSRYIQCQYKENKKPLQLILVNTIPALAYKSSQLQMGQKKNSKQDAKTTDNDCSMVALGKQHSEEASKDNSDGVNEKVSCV
T1 sequence (P31652 whole entry): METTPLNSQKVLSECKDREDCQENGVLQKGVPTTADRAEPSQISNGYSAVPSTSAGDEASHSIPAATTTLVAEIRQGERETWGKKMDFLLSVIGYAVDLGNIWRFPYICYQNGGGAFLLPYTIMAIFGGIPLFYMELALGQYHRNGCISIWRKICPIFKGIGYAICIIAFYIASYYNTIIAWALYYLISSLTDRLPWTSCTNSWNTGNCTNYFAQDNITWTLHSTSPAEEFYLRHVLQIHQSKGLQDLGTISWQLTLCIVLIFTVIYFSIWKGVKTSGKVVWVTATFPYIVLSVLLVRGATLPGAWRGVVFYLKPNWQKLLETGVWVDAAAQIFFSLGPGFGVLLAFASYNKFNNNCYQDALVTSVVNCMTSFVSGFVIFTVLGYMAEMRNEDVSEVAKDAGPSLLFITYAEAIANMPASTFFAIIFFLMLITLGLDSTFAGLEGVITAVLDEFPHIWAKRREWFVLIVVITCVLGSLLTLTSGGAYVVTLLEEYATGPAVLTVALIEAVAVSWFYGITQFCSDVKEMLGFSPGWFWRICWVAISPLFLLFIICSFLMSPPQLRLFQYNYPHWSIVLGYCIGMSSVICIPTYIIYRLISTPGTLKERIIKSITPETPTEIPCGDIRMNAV

On to `N#Cc1ccc2ccn(CCCCN3CCC(c4noc5cc(F)ccc45)CC3)c2c1` [II-9, 1-(4-(4-(6-fluorobenzo[d]isoxazol-3-yl)piperidin-1-yl)butyl)-1H-indole-6-carbonitrile], for which, in series [1], the Ames test result is recorded as “negative”. Moreover, the “inhibitory activity on 5-HT reuptake (in words)” value in series [2] (at 10 μmol/L, compared with Dutoxetine) is “potent inhibitory activities”. Moreover, the inhibition at 10 µM was determined as 105% in series [2] (final concentration 10 umol/L, rat brain synapses, read-out: 5-HTU [3H] 5-HT reuptake inhibition percentage Mean) and 99.3% at 5-HT2A receptor (read-out: 5-HT2A [3H]-Ketanserin inhibition percentage). In addition, the Sedative effect in the series on mice is reported as 47*. Further, the “Percentage increase in pain threshold” value with Kunming mice (10 mg/kg S.c.) was 97.98* %; with Kunming mice (20 mg/kg S.c.) it was 220.49** %; in the series on Kunming mice (40 mg/kg S.c.), 229.39** %. On 5-HT2A receptor (setting [3]), this compound registered an IC50 of 2.92 nM. On 5-HT2A receptor (setting [3]), this compound registered a Ki of 1.97 nM. The “inhibitory activity on 5-HT2A (in words)” value on 5-HT2A receptor (compared with Aripiprazole) is given as “potent inhibitory activities”.

(Values after US20110306638A1, “BENZISOXAZOLE PIPERIDINYL DERIVATIVES, PHARMACEUTICAL COMPOSITIONS COMPRISING THE DERIVATIVES AND THEIR USE” (NHWA PHARMA. CORPORATION, priority 2008, published 2011).)
